Reference: patent publication US20230330093A1, “APPLICATION OF NITROGEN-CONTAINING SATURATED HETEROCYCLIC COMPOUND” (SHANGHAI PHARMACEUTICALS HOLDING CO., LTD., priority 2020, published 2023)

Assays:
cynomolgus monkeys [1] = experiment: 4-week safety study: urinalysis; format: in vivo; conditions: male and female monkeys
Description: For the monkey study, at quarantine period (twice, d01 and d02), day 14, day 28 and day 56, the following parameters were measured as shown in Table 20. (1) Hematological and coagulation index examination were performed using a Bayer ADVIA2120 (Germany) and a Sysmex CA-1500 (Japan). (2) The serum biochemical examination was assessed using a HITACHI 7080 automated analyzer (Japan) and an Easylyte PLUS electrolyte analyzer (MEDICA, America). (3) The 24-h pooled urine of each animal was collected by a tray under each cage. Urinalysis was carried out using Uritest-300 (China). (4) The 24-h pooled faeces of each monkey were collected by a tray under each cage. Fecal occult blood was detected. (5) ACCESS 2 Chemiluminescence immunoassay was used for myocardial troponin (TropI, non-GLP) test.

cynomolgus monkeys [2] = experiment: 4-week repeated-dose safety study: clinical observations, mortality, body weight; format: in vivo; conditions: for body weight gain: no statistical significance
Description: The compound of Formula I was prepared and confirmed according to the method in CN103562191B. The 0.5% of sodium carboxymethyl cellulose (CMC-Na) was used as a vehicle. The compound of Formula I was stored at room temperature, protected from light and wetness. For cynomolgus monkey safety studies, the test substance was suspended in 0.5% CMC-Na at the relevant concentrations. The homogeneity, concentration and one week stability of prepared suspension was analyzed to ensure proper administration of the reported doses. The six month accelerated stability of active pharmaceutical ingredient (API) was tested by the inventor.
Healthy male and female cynomolgus monkeys aged 3-4 years were supplied by Hainan New Source Biotech Co. Ltd. (Hainan, China). The body weight range at the start of treatment was 3.2-5.8 kg for male and 2.5-3.7 kg for female. They were housed for a 36-day acclimation period before study. Once a day in the morning, animals eat and drink freely.
Mortality and clinical signs were evaluated daily from the beginning of the quarantine period. Each animal was examined at least twice daily for any change in behavior, reaction to treatment or illness after administration.
Observations included, but were not limited to the following: changes in skin and fur; eyes and mucous membranes; respiratory, circulatory, autonomic, central nervous systems and behavior patterns. Rectal temperature was measured before administration (twice), at 1 and 24 h after first administration, and before d26 administration and at 1 and 24 h after d26 administration. Body weight was measured every week. Food consumption was estimated for monkey every day. Ophthalmoscopy was conducted for the monkey study using a portable slit lamp (YZ2) and a direct ophthalmoscope (GFJY-01B).

COC(=O)NCCCn1nc([C@@H](C)N(C(=O)[C@H]2CNCCO2)C2CC2)c2ccc(C)nc21 [compound of Formula I]
urinalysis parameters (cynomolgus monkeys [1]): No significant changes | clinical signs of toxicity related to treatment in other animals (cynomolgus monkeys [2]; 20, 100, 450 mg/kg/day for 4 weeks): no apparent clinical signs of toxicity | body weight gain (cynomolgus monkeys [2]; high dose (450 mg/kg/day) females, controls 3.2±0.2): 2.7±0.4 | body weight gain (cynomolgus monkeys [2]; high dose (450 mg/kg/day) males, controls 4.6±0.5): 4.1±0.5 | mortality (cynomolgus monkeys [2]; high dose (450 mg/kg/day), nasogastric, day23): Treatment related early death occurred in one high dose female
